Assay results reported in patent US11767305B2, “Advantageous benzofuran compositions for mental disorders or enhancement” (Tactogen Inc, priority 2020, dated 2023).

Experiments:
[1] = target: 5-HT1BR (Homo sapiens (Human), UniProt P28222); assay: 5-HT1BR cAMP secondary messenger agonist assay (HitHunter, CHO-K1); format: cell-based
Source text: The 5-HT1BR cAMP secondary messenger agonist assay used a panel of CHO-K1 cell lines stably expressing non-tagged GPCRs that endogenously signal through cAMP. Hit Hunter® cAMP assays monitored the activation of a GPCR via Gi and Gs secondary messenger signaling in a homogenous, non-imaging assay format using DiscoverX Enzyme Fragment Complementation (EFC) with β-galactosidase as the functional endpoint.
The enzyme was split into two complementary portions: Enzyme Acceptor (EA) and Enzyme Donor (ED). Exogenously introduced ED fused to cAMP (ED-cAMP) competed with endogenously generated cAMP for binding to an anti-cAMP-specific antibody. Active β-galactosidase was formed by complementation of exogenous EA to any unbound ED-cAMP.
Cell lines were expanded from freezer stocks according to standard procedures. Cells were seeded in a total volume of 20 μL into white walled, 384-well microplates and incubated at 37° C. for the appropriate time prior to testing. cAMP modulation was determined using the DiscoverX HitHunter cAMP XS+ assay.
For agonist determination, cells were incubated with sample (in the presence of EC80 forskolin to induce response if measuring Gi secondary messenger signaling). Media was aspirated from cells and replaced with 15 μL 2:1 HBSS/10 mM Hepes:cAMP XS+ Ab reagent. Intermediate dilution of sample stocks was performed to generate 4×sample in assay buffer (optionally containing 4×EC80 forskolin). 5 μL of 4×sample was added to cells and incubated at 37° C. or room temperature for 30 or 60 minutes, as appropriate. Final assay vehicle concentration was 1%.

[2] = target: 5-HT2A receptors (Homo sapiens (Human), UniProt P28223); assay: 5-HT2A agonist and antagonist calcium assay (Calcium NWPLUS, FLIPR); format: cell-based
Procedure: The DiscoveRx Calcium NWPLUS Assay was used for detection of changes in intracellular calcium as signalled by an increase of dye fluorescence in cells expressing 5-HT2A receptors. Signal was measured on a fluorescent plate reader equipped with fluidic handling capable of detecting rapid changes in fluorescence upon compound stimulation.
To conduct the assay, cell lines were expanded from freezer stocks according to standard procedures. Cells (10,000 cells/well) were seeded in a total volume of 50 μL (200 cells/μL) into black-walled, clear-bottom, Poly-D-lysine coated 384-well microplates and incubated at 37-C for the appropriate time prior to testing. DMSO concentration for all readouts was ≤0.2%.
Assays were performed in 1×DyeLoading Buffer consisting of 1×Dye (DiscoverX, Calcium No WashPLUS kit, Catalog No. 90-0091), 1×Additive A and 2.5 mM Probenecid in HBSS/20 mM Hepes. Probenecid was prepared fresh. Cells were loaded with dye prior to testing. Media was aspirated from cells and replaced with 25 μL Dye Loading Buffer. Test compounds were assayed at 10 concentrations with the highest concentration either 30 or 10 μM and subsequent concentrations using a 0.33 dilution factor. Cells with testing sample were incubated for 45 minutes at 37° C. and then 20 minutes at room temperature. After dye loading, cells were removed from the incubator and 25 μL of 2×compound in HBSS/20 mM Hepes was added using a FLIPR Tetra (MDS). […]
Compound agonist activity was measured on a FLIPR Tetra. Calcium mobilization was monitored for 2 minutes with a 5 second baseline read. FLIPR read-Area under the curve was calculated for the two minute read. Compound activity was analyzed using CBIS data analysis suite (ChemInnovation, CA). Percentage activity was calculated as 100%×(mean RFU of test sample−mean RFU of vehicle control)/(mean MAX RFU control ligand −mean RFU of vehicle control). For antagonist mode assays, percentage inhibition was calculated as 100%×(1−(mean RFU of test sample−mean RFU of vehicle control)/(mean RFU of EC80 control−mean RFU of vehicle control)).

[3] = target: 5-HT2B (Homo sapiens (Human), UniProt P41595); assay: 5-HT2B agonist and antagonist calcium assay (Calcium NWPLUS, FLIPR); format: cell-based
[4] = target: MAO-A (Homo sapiens (Human), UniProt P21397); assay: MAO-A inhibition assay (kynuramine); format: biochemical
Procedure: MAO-A and test compounds were preincubated at 37° C. for 15 minutes before substrate addition. Test compounds were assayed at 10 concentrations with the highest concentration either 30 or 10 μM and subsequent concentrations using a 0.33 dilution factor. The reaction was initiated by addition of kynuramine and incubated at 37° C. for 30 minutes. The reaction was terminated by addition of NaOH. The amount of 4-hydroquioline formed was determined through spectrofluorimetric readout with the emission detection at 380 nm and excitation wavelength 310 nm.

[5] = target: Nicotinic Acetylcholine Receptor α4β2 (nAchRa4/b2) (Homo sapiens (Human), UniProt P17787+P43681); assay: Nicotinic acetylcholine receptor α4β2 ion channel blocking assay; format: cell-based
Procedure: Cell lines were expanded from freezer stocks according to standard procedures. Cells were seeded in a total volume of 20 μL into black-walled, clear-bottom, Poly-D-lysine coated 384-well microplates and incubated at 37° C. for the appropriate time prior to testing.
Assays were performed in 1×Dye Loading Buffer consisting of 1×Dye, and 2.5 mM freshly-prepared Probenecid when applicable.
Test compounds were assayed at 10 concentrations with the highest concentration either 30 or 10 μM and subsequent concentrations using a 0.33 dilution factor.
Prior to testing, cells were loaded with dye then incubated for 30-60 minutes at 37° C. For antagonist determination, cells were pre-incubated with sample. Dihydro-β-erythroidine was used as a positive control. Intermediate dilution of sample stocks was performed to generate 2-5×sample in assay buffer.
After dye loading, cells were moved from the incubator and 10-25 μL 2-5×sample was added to cells in the presence of EC80 agonist when appropriate. Cells were incubated for 30 minutes at room temperature in the dark to equilibrate plate temperature. Vehicle concentration was 1%.
Compound activity was measured on a FLIPRTetra(MDS) and analyzed using CBIS data analysis suite (ChemInnovation, CA). Percentage inhibition was calculated using the following formula: % Inhibition=100%×(1−(mean RLU of test sample−mean RLU of vehicle control)/(mean RLU of EC80 control−mean RLU of vehicle control)).

[6] = target: human 5-HT transporter (hSERT) (Homo sapiens (Human), UniProt P31645); assay: Human serotonin transporter  assay ([3H]imipramine radioligand, CHO cells); format: binding; settings: SERT IC50 (μM), 2 nM [3H]imipramine
Procedure: Benzofuran derivatives were evaluated for inhibiting the human 5-HT transporter (hSERT) as expressed in CHO cells using an antagonist radioligand assay (Tatsumi, M. et al. (1999), Eur. J Pharmacol., 368: 277-283). […] Test compounds were assayed in three trials at […], and 0.94868 μM.

[7] = target: serotonin (5-HT) transporter (SERT) (Rattus norvegicus (Rat), UniProt P31652); assay: Rat synaptosome SERT [3H]5-HT uptake inhibition assay; settings: Inhibition of [3H]5-HT Uptake at SERT IC50 (nM), 5 nM [3H]5-HT

Nicotinic Acetylcholine Receptor α4β2 (nAchRa4/b2), sequence (P43681 29-627 limits assumed): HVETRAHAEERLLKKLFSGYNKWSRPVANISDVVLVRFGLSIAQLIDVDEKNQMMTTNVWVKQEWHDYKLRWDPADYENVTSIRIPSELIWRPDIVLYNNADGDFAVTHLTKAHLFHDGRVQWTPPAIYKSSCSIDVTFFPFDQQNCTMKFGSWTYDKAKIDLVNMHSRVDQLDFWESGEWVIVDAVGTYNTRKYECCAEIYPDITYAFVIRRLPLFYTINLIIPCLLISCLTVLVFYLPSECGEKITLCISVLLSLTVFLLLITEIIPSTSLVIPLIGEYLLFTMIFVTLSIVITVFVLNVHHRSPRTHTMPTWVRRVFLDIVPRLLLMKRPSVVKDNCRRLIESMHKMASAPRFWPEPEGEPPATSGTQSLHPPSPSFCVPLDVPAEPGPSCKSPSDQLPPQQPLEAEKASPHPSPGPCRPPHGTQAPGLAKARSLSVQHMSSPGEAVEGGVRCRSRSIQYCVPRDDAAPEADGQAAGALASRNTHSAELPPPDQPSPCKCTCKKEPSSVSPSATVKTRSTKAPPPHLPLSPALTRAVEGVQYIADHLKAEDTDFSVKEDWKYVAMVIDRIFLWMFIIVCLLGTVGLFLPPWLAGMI
Nicotinic Acetylcholine Receptor α4β2 (nAchRa4/b2), sequence (P17787 26-502 limits assumed): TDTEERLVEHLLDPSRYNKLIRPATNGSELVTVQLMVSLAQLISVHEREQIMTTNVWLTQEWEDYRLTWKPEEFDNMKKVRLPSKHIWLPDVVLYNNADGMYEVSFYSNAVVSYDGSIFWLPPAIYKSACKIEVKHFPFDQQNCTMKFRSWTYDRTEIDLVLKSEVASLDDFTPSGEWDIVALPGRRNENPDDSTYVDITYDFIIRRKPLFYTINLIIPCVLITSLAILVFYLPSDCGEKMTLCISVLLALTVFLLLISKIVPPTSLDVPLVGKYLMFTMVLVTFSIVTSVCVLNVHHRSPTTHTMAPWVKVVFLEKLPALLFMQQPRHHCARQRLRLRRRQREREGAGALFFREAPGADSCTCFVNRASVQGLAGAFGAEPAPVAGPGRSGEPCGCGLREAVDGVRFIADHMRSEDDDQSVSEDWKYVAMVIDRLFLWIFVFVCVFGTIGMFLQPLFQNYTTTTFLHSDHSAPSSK
5-HT2B, sequence (P41595 whole entry, looked up, species assumed): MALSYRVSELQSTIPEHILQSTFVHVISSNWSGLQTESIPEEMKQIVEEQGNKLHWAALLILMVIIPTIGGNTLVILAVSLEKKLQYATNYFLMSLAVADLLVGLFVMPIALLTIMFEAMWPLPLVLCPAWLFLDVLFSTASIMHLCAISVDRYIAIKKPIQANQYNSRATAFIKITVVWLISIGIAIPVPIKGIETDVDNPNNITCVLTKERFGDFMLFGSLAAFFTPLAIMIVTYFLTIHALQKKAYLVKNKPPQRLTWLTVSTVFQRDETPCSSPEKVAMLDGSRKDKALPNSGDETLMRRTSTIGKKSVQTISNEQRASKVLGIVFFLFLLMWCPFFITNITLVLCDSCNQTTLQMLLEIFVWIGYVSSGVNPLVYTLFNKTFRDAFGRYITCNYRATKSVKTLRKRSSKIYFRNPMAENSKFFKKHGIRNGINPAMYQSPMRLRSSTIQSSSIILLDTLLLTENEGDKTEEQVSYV
MAO-A, sequence (P21397 whole entry, looked up, species assumed): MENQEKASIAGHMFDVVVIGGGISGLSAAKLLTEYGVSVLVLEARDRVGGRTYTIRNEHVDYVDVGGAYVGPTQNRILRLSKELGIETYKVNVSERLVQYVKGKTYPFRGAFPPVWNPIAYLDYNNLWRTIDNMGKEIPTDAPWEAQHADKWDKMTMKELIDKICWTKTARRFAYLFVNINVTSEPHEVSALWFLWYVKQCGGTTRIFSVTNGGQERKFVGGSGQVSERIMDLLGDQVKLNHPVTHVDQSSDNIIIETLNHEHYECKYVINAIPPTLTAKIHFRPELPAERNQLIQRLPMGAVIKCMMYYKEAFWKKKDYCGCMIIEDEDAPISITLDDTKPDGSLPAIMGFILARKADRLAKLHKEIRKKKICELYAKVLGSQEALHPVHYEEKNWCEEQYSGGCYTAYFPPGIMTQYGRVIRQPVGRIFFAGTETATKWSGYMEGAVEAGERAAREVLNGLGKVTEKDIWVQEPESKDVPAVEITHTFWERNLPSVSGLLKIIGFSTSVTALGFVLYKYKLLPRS

With `CN[C@H](C)Cc1ccc2ccoc2c1` [Compound R-6-MAPB, (R)-1-(benzofuran-6-yl)-N-methylpropan-2-amine] the “Hill Coef.” value [1] was 1.14, the EC50 ([1]; 5-HT1BR EC50 (μM)) was 1.48 µM and the EC50 ([1]; 5HT1B Agonist (μM)) was 1.48 µM. For the same compound, the EC50 [2] was 4.62 µM, the IC50 [3] was 400 nM and the IC50 [4] was 2120 nM. It also gave an IC50 [5] of 7.41 µM, an IC50 [6] of 24 µM and an IC50 [7] of 623 ± 31.2 nM.
